Results taken from patent US9695155B2, “Herbicidal substituted pyrimidinyloxy benzene compounds” (E. I. DU PONT DE NEMOURS AND COMPANY, priority 2013, dated 2017).

Key:
morningglory = test: Test E preemergence; assay type: in vivo, Ipomoea coccinea; conditions: for Morningglory plant response rating: scale 0 to 100 (0 no effect, 100 complete control); for Plant response rating, Morningglory: scale 0 to 100, 0 no effect, 100 complete control
From the text: (§1) Seeds of plant species selected from corn (Zea mays), soybean (Glycine max), velvetleaf (Abutilon theophrasti), lambsquarters (Chenopodium album), wild poinsettia (Euphorbia heterophylla), palmer pigweed (Amaranthus palmeri), waterhemp (common waterhemp, Amaranthus rudis), surinam grass (Brachiaria decumbens), large (Lg) crabgrass (Digitaria sanguinalis), Brazilian crabgrass (Digitaria horizontalis), fall panicum (Panicum dichotomiflorum), giant foxtail (Setaria faberii), green foxtail (Setaria viridis), goosegrass (Eleusine indica), johnsongrass (Sorghum halepense), ragweed (common ragweed, Ambrosia elatior), barnyardgrass (Echinochloa crus-galli), sandbur (southern sandbur, Cenchrus echinatus), arrowleaf sida (Sida rhombifolia), Italian ryegrass (Lolium multiflorum), dayflower (Virginia (VA) dayflower, Commelina virginica), field bindweed (Convolvulus arvensis), morningglory (Ipomoea coccinea), nightshade (eastern black nightshade, Solanum ptycanthum), kochia (Kochia scoparia), yellow nutsedge (Cyperus esculentus), cocklebur (common cocklebur, Xanthium strumarium), smartweed (ladysthumb smartweed, and hairy beggarticks (Bidens pilosa), were planted into a silt loam soil and treated preemergence with test chemicals formulated in a non-phytotoxic solvent mixture which included a surfactant.
(§2) At the same time, plants from these crop and weed species and also horseweed (Canada horseweed, Conyza canadensis), waterhemp_RES1, (ALS & Triazine resistant common waterhemp, Amaranthus rudis), and waterhemp_RES2, (ALS & HPPD resistant common waterhemp, Amaranthus rudis) were planted in pots containing Redi-Earth® planting medium (Scotts Company, 14111 Scottslawn Road, Marysville, Ohio 43041) comprising spaghnum peat moss, vermiculite, wetting agent and starter nutrients were treated with postemergence applications of test chemicals formulated in the same manner. Plants ranged in height from 2 to 18 cm for postemergence treatments (1- to 4-leaf stage). Treated plants and controls were maintained in a greenhouse for 14 to 21 days, after which time all species were compared to controls and visually evaluated. Plant response ratings, summarized in Table E, are based on a scale of 0 to 100 where 0 is no effect and 100 is complete control. A dash (-) response means no test result.

corn = test: Test E preemergence; assay type: in vivo, Zea mays; conditions: for Corn plant response rating: scale 0 to 100 (0 no effect, 100 complete control); for Plant response rating, Corn: scale 0 to 100, 0 no effect, 100 complete control
From the text: as §1, §2

velvetleaf = test: Test E preemergence; assay type: in vivo, Abutilon theophrasti; conditions: for Velvetleaf plant response rating: scale 0 to 100 (0 no effect, 100 complete control); for Plant response rating, Velvetleaf: scale 0 to 100, 0 no effect, 100 complete control
From the text: as §1, §2

large (Lg) crabgrass = test: Test E preemergence; assay type: in vivo, Digitaria sanguinalis; conditions: for Crabgrass, Large plant response rating: scale 0 to 100 (0 no effect, 100 complete control); for Plant response rating, Crabgrass, Large: scale 0 to 100, 0 no effect, 100 complete control
From the text: as §1, §2

nightshade = test: Test E preemergence; assay type: in vivo, Solanum ptycanthum; conditions: for Nightshade plant response rating: scale 0 to 100 (0 no effect, 100 complete control); for Plant response rating, Nightshade: scale 0 to 100, 0 no effect, 100 complete control
From the text: as §1, §2

fall panicum = test: Test E preemergence; assay type: in vivo, Panicum dichotomiflorum; conditions: for Panicum, Fall plant response rating: scale 0 to 100 (0 no effect, 100 complete control); for Plant response rating, Panicum, Fall: scale 0 to 100, 0 no effect, 100 complete control
From the text: as §1, §2

ragweed = test: Test E preemergence; assay type: in vivo, Ambrosia elatior; conditions: for Ragweed plant response rating: scale 0 to 100 (0 no effect, 100 complete control); for Plant response rating, Ragweed: scale 0 to 100, 0 no effect, 100 complete control
From the text: as §1, §2

barnyardgrass = test: Test E preemergence; assay type: in vivo, Echinochloa crus-galli; conditions: for Barnyardgrass plant response rating: scale 0 to 100 (0 no effect, 100 complete control); for Plant response rating, Barnyardgrass: scale 0 to 100, 0 no effect, 100 complete control
From the text: as §1, §2

dayflower = test: Test E preemergence; assay type: in vivo, Commelina virginica; conditions: for Dayflower, VA plant response rating: scale 0 to 100 (0 no effect, 100 complete control); for Plant response rating, Dayflower, VA: scale 0 to 100, 0 no effect, 100 complete control
From the text: as §1, §2

soybean = test: Test E preemergence; assay type: in vivo, Glycine max; conditions: for Soybean plant response rating: scale 0 to 100 (0 no effect, 100 complete control); for Plant response rating, Soybean: scale 0 to 100, 0 no effect, 100 complete control
From the text: as §1, §2

sedge, umbrella = test: Test C flooded paddy test; assay type: in vivo, Cyperus difformis; conditions: Flood, scale 0 to 100 (0 no effect, 100 complete control), 13 to 15 days
How it was run: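 Compound was added to standing water 3 cm above soil, flood maintained, and plants held in a greenhouse before visual scoring against controls at 13 to 15 days.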

SMILES: FC(F)(F)c1cnn(-c2ccccc2Oc2ncc(Cl)cn2)c1 [Compound 16]
- Morningglory plant response rating (morningglory; 16 g ai/ha): 0
- Morningglory plant response rating (morningglory; 31 g ai/ha): 0
- Morningglory plant response rating (morningglory; 62 g ai/ha): 0
- Plant response rating, Morningglory (morningglory; 125 g ai/ha): 25
- Plant response rating, Morningglory (morningglory; 250 g ai/ha): 95
- Corn plant response rating (corn; 16 g ai/ha): 0
- Corn plant response rating (corn; 31 g ai/ha): 0
- Corn plant response rating (corn; 62 g ai/ha): 0
- Plant response rating, Corn (corn; 125 g ai/ha): 20
- Plant response rating, Corn (corn; 250 g ai/ha): 25
- Velvetleaf plant response rating (velvetleaf; 16 g ai/ha): 0
- Velvetleaf plant response rating (velvetleaf; 31 g ai/ha): 50
- Velvetleaf plant response rating (velvetleaf; 62 g ai/ha): 85
- Plant response rating, Velvetleaf (velvetleaf; 125 g ai/ha): 100
- Plant response rating, Velvetleaf (velvetleaf; 250 g ai/ha): 100
- Crabgrass, Large plant response rating (large (Lg) crabgrass; 16 g ai/ha): 0
- Crabgrass, Large plant response rating (large (Lg) crabgrass; 31 g ai/ha): 0
- Crabgrass, Large plant response rating (large (Lg) crabgrass; 62 g ai/ha): 65
- Plant response rating, Crabgrass, Large (large (Lg) crabgrass; 125 g ai/ha): 80
- Plant response rating, Crabgrass, Large (large (Lg) crabgrass; 250 g ai/ha): 100
- Nightshade plant response rating (nightshade; 16 g ai/ha): 0
- Nightshade plant response rating (nightshade; 31 g ai/ha): 98
- Nightshade plant response rating (nightshade; 62 g ai/ha): 100
- Plant response rating, Nightshade (nightshade; 125 g ai/ha): 100
- Plant response rating, Nightshade (nightshade; 250 g ai/ha): 100
- Panicum, Fall plant response rating (fall panicum; 16 g ai/ha): 0
- Panicum, Fall plant response rating (fall panicum; 31 g ai/ha): 80
- Panicum, Fall plant response rating (fall panicum; 62 g ai/ha): 100
- Plant response rating, Panicum, Fall (fall panicum; 125 g ai/ha): 100
- Plant response rating, Panicum, Fall (fall panicum; 250 g ai/ha): 100
- Ragweed plant response rating (ragweed; 16 g ai/ha): 0
- Ragweed plant response rating (ragweed; 31 g ai/ha): 0
- Ragweed plant response rating (ragweed; 62 g ai/ha): 0
- Plant response rating, Ragweed (ragweed; 125 g ai/ha): 30
- Plant response rating, Ragweed (ragweed; 250 g ai/ha): 65
- Barnyardgrass plant response rating (barnyardgrass; 16 g ai/ha, preemergence): 0
- Barnyardgrass plant response rating (barnyardgrass; 31 g ai/ha, preemergence): 0
- Plant response rating, Barnyardgrass (barnyardgrass; Preemergence, 62 g ai/ha): 0
- Plant response rating, Barnyardgrass (barnyardgrass; preemergence, 125 g ai/ha): 10
- Plant response rating, Barnyardgrass (barnyardgrass; preemergence, 250 g ai/ha): 40
- Dayflower, VA plant response rating (dayflower; 16 g ai/ha): 0
- Dayflower, VA plant response rating (dayflower; 31 g ai/ha): 0
- Dayflower, VA plant response rating (dayflower; 62 g ai/ha): 35
- Plant response rating, Dayflower, VA (dayflower; 125 g ai/ha): 70
- Plant response rating, Dayflower, VA (dayflower; 250 g ai/ha): 98
- Soybean plant response rating (soybean; 16 g ai/ha): 0
- Soybean plant response rating (soybean; 31 g ai/ha): 60
- Soybean plant response rating (soybean; 62 g ai/ha): 60
- Plant response rating, Soybean (soybean; 125 g ai/ha): 90
- Plant response rating, Soybean (soybean; 250 g ai/ha): 95

SMILES: FC(F)(F)c1cnn(-c2ccccc2Oc2ncc(Br)cn2)c1 [Compound 18, 5-bromo-2-[2-[4-(trifluoromethyl)-1H-pyrazol-1-yl]phenoxy]pyrimidine]
- Morningglory plant response rating (morningglory; 16 g ai/ha): 0
- Morningglory plant response rating (morningglory; 31 g ai/ha): 0
- Morningglory plant response rating (morningglory; 62 g ai/ha): 0
- Plant response rating, Morningglory (morningglory; 125 g ai/ha): 0
- Plant response rating, Morningglory (morningglory; 250 g ai/ha): 35
- Corn plant response rating (corn; 16 g ai/ha): 0
- Corn plant response rating (corn; 31 g ai/ha): 0
- Corn plant response rating (corn; 62 g ai/ha): 0
- Plant response rating, Corn (corn; 125 g ai/ha): 0
- Plant response rating, Corn (corn; 250 g ai/ha): 0
- Velvetleaf plant response rating (velvetleaf; 16 g ai/ha): 25
- Velvetleaf plant response rating (velvetleaf; 31 g ai/ha): 95
- Velvetleaf plant response rating (velvetleaf; 62 g ai/ha): 100
- Plant response rating, Velvetleaf (velvetleaf; 125 g ai/ha): 100
- Plant response rating, Velvetleaf (velvetleaf; 250 g ai/ha): 100
- Plant response rating, Sedge, Umbrella (sedge, umbrella; 31 g ai/ha): 70
- Plant response rating, Sedge, Umbrella (sedge, umbrella; 62 g ai/ha): 75
- Plant response rating, Sedge, Umbrella (sedge, umbrella; 125 g ai/ha): 85
- Plant response rating, Sedge, Umbrella (sedge, umbrella; 250 g ai/ha): 90
- Crabgrass, Large plant response rating (large (Lg) crabgrass; 16 g ai/ha): 0
- Crabgrass, Large plant response rating (large (Lg) crabgrass; 31 g ai/ha): 0
- Crabgrass, Large plant response rating (large (Lg) crabgrass; 62 g ai/ha): 40
- Plant response rating, Crabgrass, Large (large (Lg) crabgrass; 125 g ai/ha): 100
- Plant response rating, Crabgrass, Large (large (Lg) crabgrass; 250 g ai/ha): 100
- Nightshade plant response rating (nightshade; 16 g ai/ha): 0
- Nightshade plant response rating (nightshade; 31 g ai/ha): 95
- Nightshade plant response rating (nightshade; 62 g ai/ha): 98
- Plant response rating, Nightshade (nightshade; 125 g ai/ha): 100
- Plant response rating, Nightshade (nightshade; 250 g ai/ha): 100
- Panicum, Fall plant response rating (fall panicum; 16 g ai/ha): 0
- Panicum, Fall plant response rating (fall panicum; 31 g ai/ha): 50
- Panicum, Fall plant response rating (fall panicum; 62 g ai/ha): 70
- Plant response rating, Panicum, Fall (fall panicum; 125 g ai/ha): 100
- Plant response rating, Panicum, Fall (fall panicum; 250 g ai/ha): 100
- Ragweed plant response rating (ragweed; 16 g ai/ha): 0
- Ragweed plant response rating (ragweed; 31 g ai/ha): 0
- Ragweed plant response rating (ragweed; 62 g ai/ha): 0
- Plant response rating, Ragweed (ragweed; 125 g ai/ha): 0
- Plant response rating, Ragweed (ragweed; 250 g ai/ha): 0
- Barnyardgrass plant response rating (barnyardgrass; 16 g ai/ha, preemergence): 0
- Barnyardgrass plant response rating (barnyardgrass; 31 g ai/ha, preemergence): 0
- Plant response rating, Barnyardgrass (barnyardgrass; Preemergence, 62 g ai/ha): 0
- Plant response rating, Barnyardgrass (barnyardgrass; preemergence, 125 g ai/ha): 5
- Plant response rating, Barnyardgrass (barnyardgrass; preemergence, 250 g ai/ha): 20
- Dayflower, VA plant response rating (dayflower; 16 g ai/ha): 0
- Dayflower, VA plant response rating (dayflower; 31 g ai/ha): 0
- Dayflower, VA plant response rating (dayflower; 62 g ai/ha): 35
- Plant response rating, Dayflower, VA (dayflower; 125 g ai/ha): 95
- Plant response rating, Dayflower, VA (dayflower; 250 g ai/ha): 98
- Soybean plant response rating (soybean; 16 g ai/ha): 0
- Soybean plant response rating (soybean; 31 g ai/ha): 0
- Soybean plant response rating (soybean; 62 g ai/ha): 60
- Plant response rating, Soybean (soybean; 125 g ai/ha): 90
- Plant response rating, Soybean (soybean; 250 g ai/ha): 90
